Assay results: ChEMBL document CHEMBL1201862, “PubChem BioAssay data set” (2004)
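Interpolation was linear, between the two tested concentrations surrounding the appropriate level; five concentrations were tested over 48 hours in 96-well plates. GI50 marks 50% less growth.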 Calls of active or inactive are those of the source. Rule as the data show it: active = GI50 up to about 1.1 µM and inactive = higher.

Columns and labels:
Experiment in all cases: NCI tumour cell line growth inhibition, 48 h
[1] = test system: NCI-H23
[2] = test system: KM12
[3] = test system: CAKI-1
[4] = test system: SF-268
[5] = test system: SF-295
[6] = test system: SK-MEL-28
[7] = test system: HCT-116
[8] = test system: NCI-H460
[9] = test system: RXF 393
[10] = test system: DU-145
[11] = test system: HT-29
[12] = test system: LOX IMVI
[13] = test system: U-251
[14] = test system: MDA-MB-231
[15] = test system: ACHN
[16] = test system: TK-10
[17] = test system: OVCAR-8
[18] = test system: SK-MEL-2
[19] = test system: A549
[20] = test system: UACC-62
[21] = test system: MOLT-4
[22] = test system: M14
[23] = test system: HCC 2998
[24] = test system: A498
[25] = test system: HOP-92
[26] = test system: IGROV-1
[27] = test system: K562
[28] = test system: EKVX
[29] = test system: COLO 205
[30] = test system: HOP-62
[31] = test system: PC-3
[32] = test system: CCRF-CEM
[33] = test system: MDA-N
[34] = test system: NCI-H226
[35] = test system: SF-539
[36] = test system: SN12C
[37] = test system: HCT-15
[38] = test system: OVCAR-4
[39] = test system: RPMI-8226
[40] = test system: SNB-75
[41] = test system: 786-0
[42] = test system: SK-OV-3
[43] = test system: Hs-578T
[44] = test system: UO-31
[45] = test system: MDA-MB-435
[46] = test system: UACC-257
[47] = test system: T47D
[48] = test system: SNB-19
[49] = test system: SW-620
[50] = test system: SK-MEL-5
[51] = test system: OVCAR-3
[52] = test system: MCF7
[53] = test system: BT-549
[54] = test system: NCI-H522
[55] = test system: OVCAR-5
[56] = test system: NCI/ADR-RES
[57] = test system: Malme-3M
[58] = test system: HL-60

Structure (SMILES): CCOC(=O)C1=C(C)NC(C)=C(C(=O)OCC)C1c1ccc(C)cc1
- GI50 [1]: 34.5 µM (inactive)
- GI50 [2]: 46.7 µM (inactive)
- GI50 [3]: 48.6 µM (inactive)
- GI50 [4]: 51.1 µM (inactive)
- GI50 [5]: 27.4 µM (inactive)
- GI50 [6]: > 100 µM (inactive)
- GI50 [7]: 36.1 µM (inactive)
- GI50 [8]: 22.9 µM (inactive)
- GI50 [9]: 29.1 µM (inactive)
- GI50 [10]: 71.9 µM (inactive)
- GI50 [11]: 27.8 µM (inactive)
- GI50 [12]: 31.8 µM (inactive)
- GI50 [13]: 46.9 µM (inactive)
- GI50 [14]: 29.4 µM (inactive)
- GI50 [15]: 43 µM (inactive)
- GI50 [16]: 66.8 µM (inactive)
- GI50 [17]: 28.1 µM (inactive)
- GI50 [18]: 39.8 µM (inactive)
- GI50 [19]: 47.2 µM (inactive)
- GI50 [20]: 39.4 µM (inactive)
- GI50 [21]: 25.9 µM (inactive)
- GI50 [22]: 37.6 µM (inactive)
- GI50 [23]: 73.6 µM (inactive)
- GI50 [24]: 40.6 µM (inactive)
- GI50 [25]: 13.1 µM (inactive)
- GI50 [26]: 27 µM (inactive)
- GI50 [27]: 31 µM (inactive)
- GI50 [28]: 42.7 µM (inactive)
- GI50 [29]: > 10 µM (inactive)
- GI50 [30]: 46.5 µM (inactive)
- GI50 [31]: 24.5 µM (inactive)
- GI50 [32]: 0.0193 µM (active)
- GI50 [33]: 31.8 µM (inactive)
- GI50 [34]: 35 µM (inactive)
- GI50 [35]: 37.1 µM (inactive)
- GI50 [36]: 22.1 µM (inactive)
- GI50 [37]: 25.8 µM
- GI50 [38]: 54.3 µM (inactive)
- GI50 [39]: 30.3 µM (inactive)
- GI50 [40]: 24.8 µM (inactive)
- GI50 [41]: 20 µM (inactive)
- GI50 [42]: 57 µM (inactive)
- GI50 [43]: 39.2 µM (inactive)
- GI50 [44]: 51.1 µM (inactive)
- GI50 [45]: 35.4 µM (inactive)
- GI50 [46]: 44.9 µM (inactive)
- GI50 [47]: 39.9 µM (inactive)
- GI50 [48]: 63.1 µM (inactive)
- GI50 [49]: 45.8 µM (inactive)
- GI50 [50]: 18.8 µM (inactive)
- GI50 [51]: 21.1 µM (inactive)
- GI50 [52]: 11.2 µM (inactive)
- GI50 [53]: 52.8 µM (inactive)
- GI50 [54]: 32.4 µM (inactive)
- GI50 [55]: 41.6 µM (inactive)

Structure (SMILES): O=C1CC(Br)c2c(Br)sc(Br)c21 (configuration not stated)
- GI50 [1]: 16.7 µM (inactive)
- GI50 [2]: 22.9 µM (inactive)
- GI50 [3]: 22 µM (inactive)
- GI50 [4]: 23.9 µM (inactive)
- GI50 [5]: 27.7 µM (inactive)
- GI50 [6]: 32 µM (inactive)
- GI50 [7]: 13.6 µM (inactive)
- GI50 [8]: 17.3 µM (inactive)
- GI50 [9]: 18.3 µM (inactive)
- GI50 [10]: 20.7 µM (inactive)
- GI50 [11]: 16.7 µM (inactive)
- GI50 [12]: 14.3 µM (inactive)
- GI50 [13]: 17.3 µM (inactive)
- GI50 [14]: 18.9 µM (inactive)
- GI50 [15]: 17.7 µM (inactive)
- GI50 [16]: 18.5 µM (inactive)
- GI50 [17]: 16.1 µM (inactive)
- GI50 [18]: 18.5 µM (inactive)
- GI50 [19]: 29.1 µM (inactive)
- GI50 [20]: 17.1 µM (inactive)
- GI50 [21]: 0.906 µM (active)
- GI50 [22]: 15.8 µM (inactive)
- GI50 [24]: 91.4 µM (inactive)
- GI50 [25]: 17.7 µM (inactive)
- GI50 [26]: 16.6 µM (inactive)
- GI50 [27]: 7.73 µM (inactive)
- GI50 [28]: 19.3 µM (inactive)
- GI50 [29]: 19.8 µM (inactive)
- GI50 [30]: 20.9 µM (inactive)
- GI50 [31]: 19.1 µM (inactive)
- GI50 [32]: 2.51 µM (inactive)
- GI50 [33]: 15.5 µM (inactive)
- GI50 [56]: 34.5 µM (inactive)
- GI50 [34]: 29.8 µM (inactive)
- GI50 [35]: 24.5 µM (inactive)
- GI50 [36]: 15.6 µM (inactive)
- GI50 [37]: 16.9 µM
- GI50 [38]: 17.3 µM (inactive)
- GI50 [39]: 8.04 µM (inactive)
- GI50 [40]: 23.1 µM (inactive)
- GI50 [41]: 16.3 µM (inactive)
- GI50 [42]: 28.8 µM (inactive)
- GI50 [43]: 36.7 µM (inactive)
- GI50 [44]: 16.4 µM (inactive)
- GI50 [45]: 20 µM (inactive)
- GI50 [46]: 15.7 µM (inactive)
- GI50 [47]: 17.6 µM (inactive)
- GI50 [48]: 27.7 µM (inactive)
- GI50 [49]: 10.5 µM (inactive)
- GI50 [50]: 19.8 µM (inactive)
- GI50 [51]: 18.9 µM (inactive)
- GI50 [52]: 16.5 µM (inactive)
- GI50 [57]: 19.7 µM (inactive)
- GI50 [53]: 19 µM (inactive)
- GI50 [58]: 14.2 µM (inactive)
- GI50 [54]: 12.1 µM (inactive)
- GI50 [55]: 17.9 µM (inactive)
